Results: patent US7928238B2, “1,2,3,4-tetrahydro-quinoline derivatives as CETP inhibitors” (Janssen Pharmaceutica NV, priority 2006, dated 2011)
Where “and” joins values, the source holds several entries; their conditions need not be identical. Identical values can stand only once.

Target: T1, CETP (Homo sapiens, UniProt P11597)
T1 construct: from tissue; host or cells: human plasma from normal volunteers
T1 sequence (P11597 18-493): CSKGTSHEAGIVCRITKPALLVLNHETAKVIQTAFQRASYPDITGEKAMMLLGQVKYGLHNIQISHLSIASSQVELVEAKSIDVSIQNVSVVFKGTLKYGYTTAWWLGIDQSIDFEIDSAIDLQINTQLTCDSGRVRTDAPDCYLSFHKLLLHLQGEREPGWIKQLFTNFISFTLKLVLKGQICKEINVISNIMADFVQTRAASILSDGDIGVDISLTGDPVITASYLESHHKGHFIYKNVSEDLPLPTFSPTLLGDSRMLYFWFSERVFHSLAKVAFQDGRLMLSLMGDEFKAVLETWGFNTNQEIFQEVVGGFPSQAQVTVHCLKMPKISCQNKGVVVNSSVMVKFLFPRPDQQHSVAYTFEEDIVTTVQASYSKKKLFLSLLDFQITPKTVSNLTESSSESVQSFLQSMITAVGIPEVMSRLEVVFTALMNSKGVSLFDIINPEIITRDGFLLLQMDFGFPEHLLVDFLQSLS
Assay: CETP in vitro assay (Amersham kit TRKQ7005; modified protocol in human plasma, [3H]CE-HDL transfer)
Type: biochemical
Settings: for % Inhibition @ 1 μM / inhibition at 1 µM: 1 μM compound; for inhibition at 1 µM: read-out: % Inhibition @ 1 μM; for IC50: from plots of % control versus compound concentration
Method: The CETP inhibitory activity of the compounds was determined using a commercially available kit from Amersham Biosciences (Catalog #TRKQ7005).
Briefly, 80 μl of human plasma (obtained from normal volunteers), approximately 25 μg/ml (20 μl) of [^3H]CE-HDL (Amersham Biosciences from kit TRKQ7005) and 1 μl of compound dissolved in DMSO was incubated for at least 4 hrs at 37° C. and non-specific transfer was determined by incubating a corresponding plate at 4° C. (blank). After the incubation period, 10 μl of a solution of 1% Dextralip 50/0.5M MgCl2, pH 7.4 was added, vortexed and incubated at room temperature for 10 min. The plate was then centrifuged for 30 min at 10° C. at 300 rpm in a Sorvall RT6000B centrifuge. Fifty microliters of the supernatant was transferred to a Picoplate (Packard) containing 100 μl of Microscint 40 (Perkin Elmer) and mixed for 30 min using a plate mixer. The radioactivity was counted using a TopCount (Perkin Elmer) and the % control was determined in the samples using the following formula: % transfer relative to vehicle controls (% control)=[cpm blank−cpm test]/cpm blank/cpm control]×100. IC50s were calculated from plots of the % control versus compound concentration.

| SMILES | % Inhibition @ 1 μM | inhibition at 1 µM [%] | IC50 |
| --- | --- | --- | --- |
| C[C@@H](O)CN1c2cccc(-c3cccc(F)c3)c2CC[C@@H]1c1cccc(OC(F)(F)C(F)F)c1 [Compound 77, (αR,2R)-5-(3-Fluorophenyl)-3,4-dihydro-α-methyl-2-[3-(1,1,2,2-tetrafluoroethoxy)phenyl]-1(2H)-quinolineethanol] | 48% | 38 |  |
| CCc1cc(Oc2cccc3c2CCC(c2cccc(OC(F)(F)C(F)F)c2)N3CC(O)C(F)(F)F)ccc1Cl (centres unmarked) [Compound 85, 3-{5-(4-Chloro-3-ethyl-phenoxy)-2-[3-(1,1,2,2-tetrafluro-ethoxy)-phenyl]-3,4-dihydro-2H-quinolin-1-yl}-1,1,1-trifluoro-propan-2-ol] | 86% |  | 400 nM |
| O[C@H](CN1c2cccc(-c3cccc(OC(F)(F)F)c3)c2CC[C@H]1c1cccc(OC(F)(F)C(F)F)c1)C(F)(F)F [Compound 81, (2S, αR)-3,4-Dihydro-2-[3-(1,1,2,2-tetrafluoroethoxy)phenyl]-5-[3-(trifluoromethoxy)phenyl]-α-(trifluoromethyl)-1(2H)-quinolineethanol] | 36% | 46 | 30 nM |
| OC(CN1c2cccc(-c3cccc(OC(F)(F)F)c3)c2CCC1c1cccc(C(F)(F)F)c1)C(F)(F)F (centres unmarked) [Compound 18, 1,1,1-Trifluoro-3-[5-(3-trifluoromethoxy-phenyl)-2-(3-trifluoromethyl-phenyl)-3,4-dihydro-2H-quinolin-1-yl]-propan-2-ol] | 40% and 35% |  | 2900 nM |
| C[C@@H](O)CN1c2cccc(-c3cccc(F)c3)c2CC[C@H]1c1cccc(OC(F)(F)F)c1 [Compound 56] |  | 0 |  |
| O[C@@H](CN1c2cccc(-c3cccc(F)c3)c2CC[C@@H]1c1cccc(OC(F)(F)C(F)F)c1)C(F)(F)F [Compound 82, (2R, αS)-3,4-Dihydro-2-[3-(1,1,2,2-tetrafluoroethoxy)phenyl]-5-[3-(fluoro)phenyl]-α-(trifluoromethyl)-1(2H)-quinolineethanol] | 76% | 84 | 122 nM and 93 nM |
| CCC1CCc2c(-c3cccc(OC(F)(F)F)c3)cccc2N1CC(O)C(F)(F)F (centres unmarked) [Compound 36, 3-[2-Ethyl-5-(3-trifluoromethoxy-phenyl)-3,4-dihydro-2H-quinolin-1-yl]-1,1,1-trifluoro-propan-2-ol] | 11% and 13% |  |  |
| OC(CN1c2cccc(-c3cccc(OC(F)(F)F)c3)c2CCC1c1cccc(C(F)(F)F)c1)C(F)(F)F (centres unmarked) [Compound 17, 1,1,1-Trifluoro-3-[5-(3-trifluoromethoxy-phenyl)-2-(3-trifluoromethyl-phenyl)-3,4-dihydro-2H-quinolin-1-yl]-propan-2-ol] | 43% and 55% | 54 | 84 nM and 202 nM |
| OC(CN1c2cccc(-c3cccc(Cl)c3)c2CCC1c1cccc(OC(F)(F)C(F)F)c1)C(F)(F)F (centres unmarked) [Compound 16, 3-{5-(3-Chloro-phenyl)-2-[3-(1,1,2,2-tetrafluoro-ethoxy)-phenyl]-3,4-dihydro-2H-quinolin-1-yl}-1,1,1-trifluoro-propan-2-ol] |  | 55 |  |
| CC(C)c1cccc(-c2cccc3c2CCC(c2cccc(OC(F)(F)C(F)F)c2)N3CC(O)C(F)(F)F)c1 (centres unmarked) [Compound 66, 1,1,1-Trifluoro-3-{5-(3-isopropyl-phenyl)-2-[3-(1,1,2,2-tetrafluoro-ethoxy)-phenyl]-3,4-dihydro-2H-quinolin-1-yl}-propan-2-ol] | 60% and 65% |  | 181 nM and 374 nM |
| OC(CN1c2cccc(Oc3cccc(Cl)c3Cl)c2CCC1c1cccc(OC(F)(F)C(F)F)c1)C(F)(F)F (centres unmarked) [Compound 87, 3-{5-(2,3-Dichloro-phenoxy)-2-[3-(1,1,2,2-tetrafluoro-ethoxy)-phenyl]-3,4-dihydro-2H-quinolin-1-yl}-1,1,1-trifluoro-propan-2-ol] | 86% |  | 400 nM |
| OC(CN1c2cccc(-c3cccc(OC(F)(F)F)c3)c2CCC1c1cccc(OC(F)(F)C(F)F)c1)C(F)(F)F (single isomer, unassigned) [Compound 2, 1,1,1-Trifluoro-3-[2-[3-(1,1,2,2-tetrafluoro-ethoxy)-phenyl]-5-(3-trifluoromethoxy-phenyl)-3,4-dihydro-2H-quinolin-1-yl]-propan-2-ol] | 86% |  | 450 nM and 150 nM |
| OC(CN1c2cccc(-c3cccc(OC(F)(F)F)c3)c2CCC1c1cccc(OC(F)(F)C(F)F)c1)C(F)(F)F (single isomer, unassigned) [Compound 1, 1,1,1-Trifluoro-3-[2-[3-(1,1,2,2-tetrafluoro-ethoxy)-phenyl]-5-(3-trifluoromethoxy-phenyl)-3,4-dihydro-2H-quinolin-1-yl]-propan-2-ol] |  | 100 | 7 nM and 25 nM and 30 nM |
| COc1cccc(C2CCc3c(-c4cccc(OC(F)(F)F)c4)cccc3N2CC(O)C(F)(F)F)c1 (centres unmarked) [Compound 25, 1,1,1-Trifluoro-3-[2-(3-methoxy-phenyl)-5-(3-trifluoromethoxy-phenyl)-3,4-dihydro-2H-quinolin-1-yl]-propan-2-ol] | 59% and 74% |  | 582 nM |
| COc1cccc(-c2cccc3c2CCC(c2cccc(OC(F)(F)C(F)F)c2)N3CC(O)C(F)(F)F)c1 (centres unmarked) [Compound 73, 1,1,1-Trifluoro-3-{5-(3-methoxy-phenyl)-2-[3-(1,1,2,2-tetrafluoro-ethoxy)-phenyl]-3,4-dihydro-2H-quinolin-1-yl}-propan-2-ol] | 50% and 26% |  |  |
| CCC1CCc2c(-c3cccc(OC(F)(F)F)c3)cccc2N1Cc1cccc(OC(F)(F)F)c1 (centres unmarked) [Compound 39, 2-Ethyl-1-(3-trifluoromethoxy-benzyl)-5-(3-trifluoromethoxy-phenyl)-1,2,3,4-tetrahydro-quinoline] |  | 17 |  |
| C[C@@H](O)CN1c2cccc(-c3cccc(OC(F)(F)F)c3)c2CC[C@H]1c1cccc(OC(F)(F)F)c1 [Compound 54] |  | 13 |  |
| OC(CN1c2cccc(-c3cccs3)c2CCC1c1cccc(OC(F)(F)C(F)F)c1)C(F)(F)F (centres unmarked) [Compound 74, 1,1,1-Trifluoro-3-{2-[3-(1,1,2,2-tetrafluoro-ethoxy)-phenyl]-5-thiophen-2-yl-3,4-dihydro-2H-quinolin-1-yl}-propan-2-ol] | 60% and 66% |  | 380 nM and 255 nM |
| COc1cccc(C2CCc3c(-c4cccc(OC(F)(F)F)c4)cccc3N2CC(O)C(F)(F)F)c1 (centres unmarked) [Compound 26, 1,1,1-Trifluoro-3-[2-(3-methoxy-phenyl)-5-(3-trifluoromethoxy-phenyl)-3,4-dihydro-2H-quinolin-1-yl]-propan-2-ol] | 4% |  |  |
| OC(CN1c2cccc(-c3ccsc3)c2CCC1c1cccc(OC(F)(F)C(F)F)c1)C(F)(F)F (centres unmarked) [Compound 64, 1,1,1-Trifluoro-3-{2-[3-(1,1,2,2-tetrafluoro-ethoxy)-phenyl]-5-thiophen-3-yl-3,4-dihydro-2H-quinolin-1-yl}-propan-2-ol] | 61% and 70% and 78% |  | 300 nM |
| OC(CN1c2cccc(-c3cccc(C(F)(F)F)c3)c2CCC1c1cccc(OC(F)(F)C(F)F)c1)C(F)(F)F (centres unmarked) [Compound 14] | 37% |  |  |
| OC(CN1c2cccc(-c3cccc(OC(F)(F)F)c3)c2CCC1c1ccc(OC(F)(F)C(F)F)cc1)C(F)(F)F (centres unmarked) [Compound 22, 1,1,1-Trifluoro-3-[2-[4-(1,1,2,2-tetrafluoro-ethoxy)-phenyl]-5-(3-trifluoromethoxy-phenyl)-3,4-dihydro-2H-quinolin-1-yl]-propan-2-ol] | 14% |  |  |
| OC(CN1c2cccc(-c3cccc(F)c3)c2CCC1c1cccc(OC(F)(F)F)c1)C(F)(F)F (centres unmarked) [Compound 57, 1,1,1-Trifluoro-3-[5-(3-fluoro-phenyl)-2-(3-trifluoromethoxy-phenyl)-3,4-dihydro-2H-quinolin-1-yl]-propan-2-ol] | 92% and 97% and 91% |  | 59 nM and 253 nM |
| C[C@H](O)CN1c2cccc(-c3cccc(OC(F)(F)F)c3)c2CC[C@H]1c1cccc(OC(F)(F)C(F)F)c1 [Compound 62] |  | 30 |  |
| OC(CN1c2cccc(-c3cccc(C(F)(F)F)c3)c2CCC1c1cccc(OC(F)(F)C(F)F)c1)C(F)(F)F (centres unmarked) [Compound 13] | 98% and 87% |  | 96 nM |
| OC(CCl)CN1c2cccc(-c3cccc(OC(F)(F)F)c3)c2CCC1c1cccc(OC(F)(F)F)c1 (centres unmarked) [Compound 48, 1-[2,5-Bis-(3-trifluoromethoxy-phenyl)-3,4-dihydro-2H-quinolin-1-yl]-3-chloro-propan-2-ol] | 0% |  |  |
